Results as given in the supplement of paper PMC10627819.

How the values were obtained:
B. subtilis 168 [1] = assay: fitness (endpoint OD595 vs no drug) (fraction); higher = more growth
How it was run: (§1)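 Each well of a 384-well plate received 30 µl of culture at OD595 0.01, or 55 µl for S. pneumoniae. TSB, LB Lennox or CY served as media at 37 °C. OD595 was taken every 30 min for 14 h and corrected by subtracting the first reading. Fitness is the optical density at stationary-phase entry divided by the robust mean of no-drug controls, capped at 1.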

B. subtilis 168 [2] = assay: Bliss interaction score (quartile over a dose matrix) (fitness difference); higher = more antagonism (negative = synergy)
How it was run: (§2)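 Growth in each well was taken as OD595 at entry into stationary phase. Dividing by the plate's robust no-drug mean and capping at 1 gave fitness, and single-drug fitness was inferred from the combination data. The Bliss score, observed minus product-expected fitness, is summarised by quartiles over technical, biological and donor/recipient replicates.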

S. aureus DSM 20231 = assay: as above
How it was run: as §2

S. aureus Newman = assay: as above
How it was run: as §2

S. pneumoniae D39V [3] = assay: as above
How it was run: as §2

S. pneumoniae D39V [4] = assay: fitness (endpoint OD595 vs no drug) (fraction); higher = more growth
How it was run: as §1
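Throughout, for Bliss interaction score (quartile over a dose matrix): first quartile when negative (synergy) and third quartile when positive (antagonism).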

CO/N=C(\C(=O)N[C@@H]1C(=O)N2C(C(=O)O)=C(COC(N)=O)CS[C@H]12)c1ccco1 [Cefuroxime] + CO[C@@H]1[C@@H](OC(N)=O)[C@@H](O)[C@H](Oc2ccc3c(O)c(NC(=O)c4ccc(O)c(CC=C(C)C)c4)c(=O)oc3c2C)OC1(C)C [Novobiocin]
B. subtilis 168 [1], one replicate
Details | fitness
first compound 0.04875 µg/mL, partner 0.0125 µg/mL | ≥ 1
first compound 0.04875 µg/mL, partner 0.025 µg/mL | 0.997
first compound 0.04875 µg/mL, partner 0.1 µg/mL | 0.563
first compound 0.04875 µg/mL, partner 0.2 µg/mL | 0.528
first compound 0.0975 µg/mL, partner 0.0125 µg/mL | 0.824
first compound 0.0975 µg/mL, partner 0.025 µg/mL | 0.893
first compound 0.0975 µg/mL, partner 0.1 µg/mL | 0.483
first compound 0.0975 µg/mL, partner 0.2 µg/mL | 0.429
first compound 0.195 µg/mL, partner 0.0125 µg/mL | 0.756
first compound 0.195 µg/mL, partner 0.025 µg/mL | 0.76
first compound 0.195 µg/mL, partner 0.1 µg/mL | 0.36
first compound 0.195 µg/mL, partner 0.125 µg/mL | 0.133
first compound 0.195 µg/mL, partner 0.2 µg/mL | 0.335
first compound 0.195 µg/mL, partner 0.25 µg/mL | 0.108
first compound 0.195 µg/mL, partner 0.5 µg/mL | 0.017
first compound 0.39 µg/mL, partner 0.125 µg/mL | 0.116
first compound 0.39 µg/mL, partner 0.25 µg/mL | 0.0783
first compound 0.39 µg/mL, partner 0.5 µg/mL | 0
first compound 0.78 µg/mL, partner 0.125 µg/mL | 0.0821
first compound 0.78 µg/mL, partner 0.25 µg/mL | 0.0334
first compound 0.78 µg/mL, partner 0.5 µg/mL | 0.0061
first compound 1.562 µg/mL, partner 0.0125 µg/mL | 0.318
first compound 1.562 µg/mL, partner 0.025 µg/mL | 0.274
first compound 1.562 µg/mL, partner 0.05 µg/mL | 0.263
first compound 3.125 µg/mL, partner 0.0125 µg/mL | 0.264
first compound 3.125 µg/mL, partner 0.025 µg/mL | 0.23
first compound 3.125 µg/mL, partner 0.05 µg/mL | 0.189
first compound 6.25 µg/mL, partner 0.0125 µg/mL | 0.249
first compound 6.25 µg/mL, partner 0.025 µg/mL | 0.178
first compound 6.25 µg/mL, partner 0.05 µg/mL | 0.159

B. subtilis 168 [1], partner 0.05 µg/mL
Details | fitness
first compound 0.0975 µg/mL | 0.665
first compound 0.195 µg/mL | 0.555

Details | Bliss interaction score
B. subtilis 168 [2] | -0.0729
S. aureus DSM 20231 | 0.119
S. aureus Newman | -0.131
S. pneumoniae D39V [3] | 0.0773

O=C(O)c1cn(C2CC2)c2cc(N3CCNCC3)c(F)cc2c1=O [Ciprofloxacin] + CO[C@@H]1[C@@H](OC(N)=O)[C@@H](O)[C@H](Oc2ccc3c(O)c(NC(=O)c4ccc(O)c(CC=C(C)C)c4)c(=O)oc3c2C)OC1(C)C [Novobiocin]
fitness, B. subtilis 168 [1]
Details | first compound 0.0098 µg/mL | first compound 0.0195 µg/mL | first compound 0.039 µg/mL
partner 0.0125 µg/mL | 0.905 | 0.769 | 0.127
partner 0.025 µg/mL | 0.92 | 0.723 | 0.034
partner 0.05 µg/mL | 0.964 | 0.726 | 0.0487

fitness, B. subtilis 168 [1], one replicate
Details | partner 0.1 µg/mL | partner 0.125 µg/mL | partner 0.2 µg/mL | partner 0.25 µg/mL | partner 0.5 µg/mL
first compound 0.0098 µg/mL | 0.926 | 0.84 | 0.915 | 0.697 | 0.15
first compound 0.0195 µg/mL | 0.727 | 0.78 | 0.71 | 0.448 | 0.066
first compound 0.039 µg/mL | 0.127 | 0.0634 | 0.089 | 0.0302 | 0.0454

Details | Bliss interaction score
B. subtilis 168 [2] | -0.183
S. aureus DSM 20231 | -0.0685
S. aureus Newman | -0.115
S. pneumoniae D39V [3] | -0.161

C[C@H]1c2cccc(O)c2C(=O)C2=C(O)[C@]3(O)C(=O)C(C(N)=O)=C(O)[C@@H](N(C)C)[C@@H]3[C@@H](O)[C@@H]21 [Doxycycline] + C/C(=C\C(=O)OCCCCCCCCC(=O)O)C[C@@H]1OC[C@H](C[C@@H]2O[C@H]2[C@@H](C)[C@H](C)O)[C@@H](O)[C@H]1O [Pseudomonic acid]
fitness, S. pneumoniae D39V [4], one replicate
Details | partner 0.03 µg/mL | partner 0.06 µg/mL | partner 0.12 µg/mL
first compound 0.003875 µg/mL | 0.973 | 0.887 | 0.585
first compound 0.00775 µg/mL | 0.943 | 0.839 | 0.614

fitness, S. pneumoniae D39V [4]
Details | first compound 0.0155 µg/mL | first compound 0.031 µg/mL | first compound 0.062 µg/mL
partner 0.03 µg/mL | 0.993 | 0.937 | 0.821
partner 0.06 µg/mL | 0.878 | 0.845 | 0.857
partner 0.12 µg/mL | 0.604 | 0.608 | 0.562

Details | Bliss interaction score
B. subtilis 168 [2] | -0.0363
S. aureus DSM 20231 | -0.0104
S. aureus Newman | -0.0168
S. pneumoniae D39V [3] | 0.0875

C[C@H]1c2cccc(O)c2C(=O)C2=C(O)[C@]3(O)C(=O)C(C(N)=O)=C(O)[C@@H](N(C)C)[C@@H]3[C@@H](O)[C@@H]21 [Doxycycline] + Clc1ccc(COC(Cn2ccnc2)c2ccc(Cl)cc2Cl)c(Cl)c1 [Miconazole]
fitness, S. pneumoniae D39V [4], one replicate
Details | first compound 0.003875 µg/mL | first compound 0.00775 µg/mL | first compound 0.031 µg/mL | first compound 0.062 µg/mL
partner 1.25 µg/mL | 0.936 | 0.934 | 0.852 | 0.731
partner 2.5 µg/mL | 0.925 | 0.964 | 0.878 | 0.74
partner 5 µg/mL | 0.954 | 0.96 | 0.854 | 0.689

fitness, S. pneumoniae D39V [4]
Details | partner 1.073 µg/mL | partner 1.25 µg/mL | partner 2.145 µg/mL | partner 2.5 µg/mL | partner 4.29 µg/mL | partner 5 µg/mL
first compound 0.0155 µg/mL | 0.947 | 0.923 | 0.96 | 0.936 | 0.895 | 0.911
first compound 0.031 µg/mL | 0.937 | – | 0.95 | – | 0.912 | –
first compound 0.062 µg/mL | 0.895 | – | 0.908 | – | 0.835 | –

Details | Bliss interaction score
B. subtilis 168 [2] | 0.0453
S. aureus DSM 20231 | 0.0575
S. aureus Newman | -0.0138
S. pneumoniae D39V [3] | 0.0669
